# Results from PubChem BioAssay (NCI).
#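 GI50 marks 50% less growth. TGI: concentration producing complete growth inhibition.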
# Columns and labels:
# Test in all cases: NCI anticancer screen, dose series, 384-well format
# [1] = system: NCI-H226 lung
# [2] = system: SNB-19 CNS
# [3] = system: MCF7 breast
# [4] = system: COLO 205 colon
# [5] = system: RPMI-8226 leukemia
# [6] = system: MDA-MB-231 breast
# [7] = system: MOLT-4 leukemia
# [8] = system: 786-0 renal
# [9] = system: U251 glioblastoma
# [10] = system: CCRF-CEM leukemia
# [11] = system: SK-MEL-5 melanoma
# [12] = system: M14 melanoma
# [13] = system: UACC-62 melanoma
# [14] = system: NCI-H23 lung
# [15] = system: UO-31 renal
# [16] = system: TK-10 renal
# [17] = system: IGROV1 ovarian
# [18] = system: UACC-257 melanoma
# [19] = system: LOX IMVI melanoma
# [20] = system: BT-549 breast
# [21] = system: SF-295 CNS
# [22] = system: NCI-H522 lung
# [23] = system: RXF 393 renal
# [24] = system: SN12C renal
# [25] = system: MALME-3M melanoma
# [26] = system: PC-3 prostate
# [27] = system: OVCAR-3 ovarian
# [28] = system: HT29 colon
# [29] = system: HOP-92 NSCLC
compound,measurement,setting,value
NCCCC[C@@H]1NC(=O)[C@H](CC(=O)O)NC(=O)CNC(=O)[C@H](CCCN=C(N)N)NC(=O)[C@@H](N)CSSC[C@@H](C(=O)O)NC(=O)[C@H](CC(=O)O)NC(=O)[C@@H]2CCCN2C(=O)CNC1=O,TGI,[1],> 100 µM
same,GI50,[2],> 100 µM
same,TGI,[2],> 100 µM
same,GI50,[3],> 100 µM
same,TGI,[3],> 100 µM
same,GI50,[4],> 100 µM
same,TGI,[4],> 100 µM
same,GI50,[5],> 100 µM
same,TGI,[5],> 100 µM
same,GI50,[6],> 100 µM
same,TGI,[6],> 100 µM
same,GI50,[7],> 100 µM
same,TGI,[7],> 100 µM
same,GI50,[8],> 100 µM
same,TGI,[8],> 100 µM
same,GI50,[9],> 100 µM
same,TGI,[9],> 100 µM
same,GI50,[10],> 100 µM
same,TGI,[10],> 100 µM
same,GI50,[11],> 100 µM
same,TGI,[11],> 100 µM
same,GI50,[12],> 100 µM
same,TGI,[12],> 100 µM
same,GI50,[13],80 µM
same,TGI,[13],> 100 µM
same,GI50,[14],> 100 µM
same,TGI,[14],> 100 µM
same,GI50,[15],> 100 µM
same,TGI,[15],> 100 µM
same,GI50,[16],> 100 µM
same,TGI,[16],> 100 µM
same,GI50,[17],> 100 µM
same,TGI,[17],> 100 µM
same,GI50,[18],> 100 µM
same,TGI,[18],> 100 µM
same,GI50,[19],> 100 µM
same,TGI,[19],> 100 µM
same,GI50,[20],> 100 µM
same,TGI,[20],> 100 µM
same,GI50,[21],> 100 µM
same,TGI,[21],> 100 µM
same,GI50,[22],> 100 µM
same,TGI,[22],> 100 µM
same,GI50,[23],> 100 µM
same,TGI,[23],> 100 µM
same,GI50,[24],> 100 µM
same,TGI,[24],> 100 µM
same,GI50,[25],93.7 µM
same,TGI,[25],> 100 µM
same,GI50,[26],> 100 µM
same,TGI,[26],> 100 µM
same,GI50,[27],> 100 µM
same,TGI,[27],> 100 µM
same,GI50,[28],> 100 µM
same,TGI,[28],> 100 µM
same,GI50,[29],> 100 µM
same,TGI,[29],> 100 µM
